Reference: patent publication US20020128311A1, “Halocyanoacetamide antimicrobial compositions” (priority 2000, published 2002)

What was measured:
Format in all cases: physicochemical
[1] = Stability of CMIT and DBNPA mixtures in GTA, stored at 50° C., HPLC; conditions: […]% CMIT/MIT mixture
Protocol: Surfactants were TweenTM 20, TritonTM DF-12 or TritonTM CF-10. The compositions were stored at 50° C. for 4 weeks and the concentrations of active ingredients ([…]) in the compositions were determined by HPLC at the indicated time intervals.

[2] = Stability of DCOIT and DBNPA mixtures in GTA, stored at 40° C., HPLC; conditions: 4% DCOIT
Protocol: […] […] Surfactants were TweenTM 20, TritonTM DF-12 or TritonTM CF-10. These compositions were stored at 40° C. for 6 weeks and the concentrations of active ingredients ([…]) in the compositions were determined by HPLC at the indicated time intervals.

[3] = Freeze/thaw stability of DCOIT/DBNPA/surfactant/GTA compositions, HPLC; conditions: for % DBNPA retained after Freezing and Thawing: thawed at 25° C. 5 hours, three times
Protocol: Samples were prepared to test the freeze/thaw stability of compositions of the present invention. The freeze/thaw test was conducted for compositions of […], surfactant and GTA prepared in Example 4. Samples (20 g each) were stored at -10° C. or -25° C. for 19 hours to be frozen; samples were then stored at 25° C. for 5 hours to be thawed. This sequence was repeated three times. Then the concentrations of active ingredients ([…]) in the compositions were determined by HPLC.

[4] = Stability of DBNPA in various solvents, stored at 60° C., HPLC; conditions: for % DBNPA retained: 2.0 g DBNPA + 8.0 g solvent

% DBNPA retained ([1]; 5% Triton CF-10, 45% GTA, 0 Time): 100%
% DBNPA retained ([1]; 5% Triton CF-10, 45% GTA, 1 Week): 97%
% DBNPA retained ([1]; 5% Triton CF-10, 45% GTA, 2 Weeks): 93%
% DBNPA retained ([1]; 5% Triton CF-10, 45% GTA, 3 Weeks): 77%
% DBNPA retained ([1]; 5% Triton CF-10, 45% GTA, 4 Weeks): 69%
% DBNPA retained ([1]; 5% Triton DF-12, 45% GTA, 0 Time): 100%
% DBNPA retained ([1]; 5% Triton DF-12, 45% GTA, 1 Week): 98%
% DBNPA retained ([1]; 5% Triton DF-12, 45% GTA, 2 Weeks): 95%
% DBNPA retained ([1]; 5% Triton DF-12, 45% GTA, 3 Weeks): 73%
% DBNPA retained ([1]; 5% Triton DF-12, 45% GTA, 4 Weeks): 68%
% DBNPA retained ([1]; 5% Tween 20, 45% GTA, 0 Time): 100%
% DBNPA retained ([1]; 5% Tween 20, 45% GTA, 1 Week): 97%
% DBNPA retained ([1]; 5% Tween 20, 45% GTA, 2 Weeks): 71%
% DBNPA retained ([1]; 5% Tween 20, 45% GTA, 3 Weeks): 61%
% DBNPA retained ([1]; 5% Tween 20, 45% GTA, 4 Weeks): 54%
% DBNPA retained ([1]; no surfactant, 50% GTA, 0 Time): 100%
% DBNPA retained ([1]; no surfactant, 50% GTA, 1 Week): 98%
% DBNPA retained ([1]; no surfactant, 50% GTA, 2 Weeks): 90%
% DBNPA retained ([1]; no surfactant, 50% GTA, 3 Weeks): 85%
% DBNPA retained ([1]; no surfactant, 50% GTA, 4 Weeks): 78%
% DBNPA retained ([2]; 5% Triton CF-10, 66% GTA, 4 Weeks): 93.5%
% DBNPA retained ([2]; 5% Triton CF-10, 66% GTA, 6 Weeks): 91.2%
% DBNPA retained ([2]; 5% Triton CF-10, 66% GTA, Time 0): 100.0%
% DBNPA retained ([2]; 5% Triton DF-12, 66% GTA, 4 Weeks): 92.3%
% DBNPA retained ([2]; 5% Triton DF-12, 66% GTA, 6 Weeks): 92.0%
% DBNPA retained ([2]; 5% Triton DF-12, 66% GTA, Time 0): 100.0%
% DBNPA retained ([2]; 5% Tween 20, 66% GTA, 4 Weeks): 93.3%
% DBNPA retained ([2]; 5% Tween 20, 66% GTA, 6 Weeks): 92.1%
% DBNPA retained ([2]; 5% Tween 20, 66% GTA, Time 0): 100.0%
% DBNPA retained after Freezing and Thawing ([3]; Example 4 composition with Triton CF-10, frozen at −10° C. 19 hours): 98.8%
% DBNPA retained after Freezing and Thawing ([3]; Example 4 composition with Triton CF-10, frozen at −25° C. 19 hours): 98.8%
% DBNPA retained after Freezing and Thawing ([3]; Example 4 composition with Triton DF-12, frozen at −10° C. 19 hours): 98.8%
% DBNPA retained after Freezing and Thawing ([3]; Example 4 composition with Triton DF-12, frozen at −25° C. 19 hours): 99%
% DBNPA retained after Freezing and Thawing ([3]; Example 4 composition with Tween 20, frozen at −10° C. 19 hours): 99.2%
% DBNPA retained after Freezing and Thawing ([3]; Example 4 composition with Tween 20, frozen at −25° C. 19 hours): 99.1%
% retained ([4]; after 4 weeks in glycol, amide, ether and ketone solvents): less than 50%
% DBNPA retained ([4]; solvent 62% dipropylene glycol in water (comparative), 1 week): 95%
% DBNPA retained ([4]; solvent 62% dipropylene glycol in water (comparative), 4 weeks): 20%
% DBNPA retained ([4]; solvent 75% dipropylene glycol in water (comparative), 1 week): 79%
% DBNPA retained ([4]; solvent 86% dipropylene glycol in water (comparative), 1 week): 49%
% DBNPA retained ([4]; solvent GTA, 1 week): 92%
% DBNPA retained ([4]; solvent GTA, 2 weeks): 100%
% DBNPA retained ([4]; solvent GTA, 3 weeks): 100%
% DBNPA retained ([4]; solvent GTA, 4 weeks): 100%
% DBNPA retained ([4]; solvent PGMEA (comparative), 1 week): 80%
% DBNPA retained ([4]; solvent PGMEA (comparative), 2 weeks): 65%
% DBNPA retained ([4]; solvent PGMEA (comparative), 3 weeks): 61%
% DBNPA retained ([4]; solvent PGMEA (comparative), 4 weeks): 45%
% DBNPA retained ([4]; solvent diethyl phthalate, 1 week): 100%
% DBNPA retained ([4]; solvent diethyl phthalate, 2 weeks): 98%
% DBNPA retained ([4]; solvent diethyl phthalate, 3 weeks): 98%
% DBNPA retained ([4]; solvent diethyl phthalate, 4 weeks): 98%
% DBNPA retained ([4]; solvent dimethyl formamide (comparative), 1 week): 73%
% DBNPA retained ([4]; solvent dimethyl formamide (comparative), 2 weeks): 46%
% DBNPA retained ([4]; solvent ethyl acetate, 1 week): 100%
% DBNPA retained ([4]; solvent ethyl acetate, 2 weeks): 100%
% DBNPA retained ([4]; solvent ethyl acetate, 3 weeks): 100%
% DBNPA retained ([4]; solvent ethyl acetate, 4 weeks): 100%
% DBNPA retained ([4]; solvent methyl amyl ketone (comparative), 1 week): 9%
% DBNPA retained ([4]; solvent methyl amyl ketone (comparative), 2 weeks): 12%
% DBNPA retained ([4]; solvent methyl amyl ketone (comparative), 3 weeks): 0%
% DBNPA retained ([4]; solvent octyl pyrrolidone (comparative), 1 week): 62%
% DBNPA retained ([4]; solvent octyl pyrrolidone (comparative), 2 weeks): 50%
% DBNPA retained ([4]; solvent octyl pyrrolidone (comparative), 3 weeks): 45%
% DBNPA retained ([4]; solvent triethylene glycol dimethyl ether (comparative), 1 week): 15%
% DBNPA retained ([4]; solvent triethylene glycol dimethyl ether (comparative), 2 weeks): 0%
SMILES: N#CC(Br)(Br)C(N)=O [DBNPA, 2,2-dibromo-3-nitrilopropionamide]
physical stability (appearance) during freeze/thaw cycling ([3]; in GTA solutions in the presence of surfactants): clear solution, no precipitation or phase separation observed
